Patent US20060122174A1, “Antiviral treatment” (Henderson Morley Research & Development Limited, priority 2001, published 2006)
Read-outs that look alike come from different tables or passages of the source.

Tested on: type 2 herpes simplex strain 3345
Assay: In vitro bioassay: inhibition of virus replication in infected African green monkey kidney cells
Format: cell-based, type 2 herpes simplex virus
Conditions: for Inhibition of hsv2, Effect of bendrofluazide: 0.25 mg bendrofluazide/ml liquid medium; for inhibition at 1000 µg/mL: frusemide 1 mg/ml, African green monkey kidney cells
Description: In vitro bioassays were undertaken to follow the anti-viral activity of a diuretic compound. […] Inhibition of virus replication was scored on the scale: […]

CCCCNC(=O)NS(=O)(=O)c1ccc(C)cc1 [tolbutamide]
Inhibition of hsv2, effect of tolbutamide (High multiplicity of infection, 0.5 mg tolbutamide/ml liquid medium): + (20% inhibition) | Inhibition of hsv2, effect of tolbutamide (High multiplicity of infection, 5 mg tolbutamide/ml liquid medium): ++ (40% inhibition) | Inhibition of hsv2, effect of tolbutamide (High multiplicity of infection, 50 mg tolbutamide/ml liquid medium): +++ (60% inhibition) | Inhibition of hsv2, effect of tolbutamide (Low multiplicity of infection, 0.5 mg tolbutamide/ml liquid medium): ++ (40% inhibition) | Inhibition of hsv2, effect of tolbutamide (Low multiplicity of infection, 5 mg tolbutamide/ml liquid medium): +++ (60% inhibition) | Inhibition of hsv2, effect of tolbutamide (Low multiplicity of infection, 50 mg tolbutamide/ml liquid medium): +++++ (100% inhibition) | Inhibition of hsv2, effect of tolbutamide (Medium multiplicity of infection, 0.5 mg tolbutamide/ml liquid medium): + (20% inhibition) | Inhibition of hsv2, effect of tolbutamide (Medium multiplicity of infection, 5 mg tolbutamide/ml liquid medium): +++ (60% inhibition) | Inhibition of hsv2, effect of tolbutamide (Medium multiplicity of infection, 50 mg tolbutamide/ml liquid medium): ++++ (80% inhibition)

NS(=O)(=O)c1cc2c(cc1C(F)(F)F)NC(Cc1ccccc1)NS2(=O)=O (stereo not drawn) [bendrofluazide]
Inhibition of hsv2, Effect of bendrofluazide (High multiplicity of infection): ++ (40% inhibition) | Inhibition of hsv2, Effect of bendrofluazide (Low multiplicity of infection): ++++ (80% inhibition) | Inhibition of hsv2, Effect of bendrofluazide (Medium multiplicity of infection): ++++ (80% inhibition)

NS(=O)(=O)c1cc(C(=O)O)c(NCc2ccco2)cc1Cl [frusemide, 4-chloro-N-furfuryl-5-sulfamoylanthranilic acid]
inhibition at 1000 µg/mL (Human alphaherpesvirus 2, read-out: Inhibition of hsv2, Effect of frusemide, High multiplicity of infection): 0% | inhibition at 1000 µg/mL (Human alphaherpesvirus 2, read-out: Inhibition of hsv2, Effect of frusemide, Low multiplicity of infection): 40% | inhibition at 1000 µg/mL (Human alphaherpesvirus 2, read-out: Inhibition of hsv2, Effect of frusemide, Medium multiplicity of infection): 40%
